In PubChem BioAssay (NCI):
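Tested at 5 concentrations; 48 h exposure; 96-well plates; endpoints linearly interpolated, else capped at highest concentration. The concentration for full growth arrest is given as TGI.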

What was measured:
Assay in all cases: inhibition of tumour cell growth, NCI panel, 48 h
SF-295 CNS = system: SF-295 CNS
UACC-62 melanoma = system: UACC-62 melanoma
SK-MEL-28 melanoma = system: SK-MEL-28 melanoma
M19-MEL melanoma = system: M19-MEL melanoma
IGROV1 ovarian = system: IGROV1 ovarian
COLO 205 colon = system: COLO 205 colon
NCI-H522 lung = system: NCI-H522 lung
CCRF-CEM leukemia = system: CCRF-CEM leukemia
SK-MEL-5 melanoma = system: SK-MEL-5 melanoma
MALME-3M melanoma = system: MALME-3M melanoma
A549 NSCLC = system: A549 NSCLC
SW-620 colon = system: SW-620 colon
HCC-2998 colon = system: HCC-2998 colon
U251 CNS = system: U251 CNS
A498 renal = system: A498 renal
ACHN renal = system: ACHN renal
OVCAR-4 ovarian = system: OVCAR-4 ovarian
CAKI-1 renal = system: CAKI-1 renal
OVCAR-8 ovarian = system: OVCAR-8 ovarian
DLD-1 colon = system: DLD-1 colon
EKVX NSCLC = system: EKVX NSCLC
HOP-62 NSCLC = system: HOP-62 NSCLC
SF-268 CNS = system: SF-268 CNS
SK-MEL-2 melanoma = system: SK-MEL-2 melanoma
HL-60(TB) leukemia = system: HL-60(TB) leukemia
MOLT-4 leukemia = system: MOLT-4 leukemia
OVCAR-3 ovarian = system: OVCAR-3 ovarian
HT29 colon = system: HT29 colon
M14 melanoma = system: M14 melanoma
NCI-H23 lung = system: NCI-H23 lung
LXFL 529 NSCLC = system: LXFL 529 NSCLC
KM20L2 colon = system: KM20L2 colon
SNB-75 CNS = system: SNB-75 CNS
SR leukemia = system: SR leukemia
HOP-92 NSCLC = system: HOP-92 NSCLC
LOX IMVI melanoma = system: LOX IMVI melanoma
SF-539 CNS = system: SF-539 CNS
SNB-19 CNS = system: SNB-19 CNS
HOP-18 NSCLC = system: HOP-18 NSCLC
XF 498 CNS = system: XF 498 CNS
RXF 393 renal = system: RXF 393 renal
SN12C renal = system: SN12C renal
NCI-H460 lung = system: NCI-H460 lung
RPMI-8226 leukemia = system: RPMI-8226 leukemia
UO-31 renal = system: UO-31 renal
NCI-H226 lung = system: NCI-H226 lung
DMS 273 small cell lung = system: DMS 273 small cell lung
RXF-631 renal = system: RXF-631 renal
OVCAR-5 ovarian = system: OVCAR-5 ovarian
HCT-15 colon = system: HCT-15 colon
TK-10 renal = system: TK-10 renal
SK-OV-3 ovarian = system: SK-OV-3 ovarian
786-0 renal = system: 786-0 renal
K-562 leukemia = system: K-562 leukemia
KM12 colon = system: KM12 colon
UACC-257 melanoma = system: UACC-257 melanoma
HCT-116 colon = system: HCT-116 colon
SNB-78 CNS = system: SNB-78 CNS

## CCOc1ccc(NC(=O)CC2C(=O)Nc3ccccc3S2=O)cc1 (stereo not drawn)
SF-295 CNS
  TGI: > 100 µM
UACC-62 melanoma
  TGI: > 46.4 µM
SK-MEL-28 melanoma
  TGI: > 100 µM
M19-MEL melanoma
  TGI: > 100 µM
IGROV1 ovarian
  TGI: > 100 µM
COLO 205 colon
  TGI: > 100 µM
NCI-H522 lung
  TGI: > 100 µM
CCRF-CEM leukemia
  TGI: > 100 µM
SK-MEL-5 melanoma
  TGI: > 100 µM
MALME-3M melanoma
  TGI: > 100 µM
A549 NSCLC
  TGI: > 100 µM
SW-620 colon
  TGI: > 100 µM
HCC-2998 colon
  TGI: > 100 µM
U251 CNS
  TGI: > 75.4 µM
A498 renal
  TGI: > 78.5 µM
ACHN renal
  TGI: > 86.7 µM
OVCAR-4 ovarian
  TGI: > 70.2 µM
CAKI-1 renal
  TGI: > 92.9 µM
OVCAR-8 ovarian
  TGI: > 85.8 µM
DLD-1 colon
  TGI: > 100 µM
EKVX NSCLC
  TGI: > 46.4 µM
HOP-62 NSCLC
  TGI: > 100 µM
SF-268 CNS
  TGI: > 100 µM
SK-MEL-2 melanoma
  TGI: > 100 µM
HL-60(TB) leukemia
  TGI: > 100 µM
MOLT-4 leukemia
  TGI: > 100 µM
OVCAR-3 ovarian
  TGI: > 78.7 µM
HT29 colon
  TGI: > 100 µM
M14 melanoma
  TGI: > 100 µM
NCI-H23 lung
  TGI: > 100 µM
LXFL 529 NSCLC
  TGI: > 100 µM
KM20L2 colon
  TGI: > 46.4 µM
SNB-75 CNS
  TGI: 50.6 µM
SR leukemia
  TGI: > 88.5 µM
HOP-92 NSCLC
  TGI: > 70.6 µM
LOX IMVI melanoma
  TGI: > 100 µM
SF-539 CNS
  TGI: > 100 µM
SNB-19 CNS
  TGI: > 89.3 µM
HOP-18 NSCLC
  TGI: > 100 µM
XF 498 CNS
  TGI: 74.4 µM
RXF 393 renal
  TGI: 66.9 µM
SN12C renal
  TGI: > 100 µM
NCI-H460 lung
  TGI: > 100 µM
RPMI-8226 leukemia
  TGI: > 100 µM
UO-31 renal
  TGI: > 83.1 µM
NCI-H226 lung
  TGI: > 86.7 µM
DMS 273 small cell lung
  TGI: > 100 µM
RXF-631 renal
  TGI: > 100 µM
OVCAR-5 ovarian
  TGI: > 100 µM
HCT-15 colon
  TGI: > 100 µM
TK-10 renal
  TGI: > 96.2 µM
SK-OV-3 ovarian
  TGI: > 100 µM
786-0 renal
  TGI: > 76.6 µM
K-562 leukemia
  TGI: > 100 µM
KM12 colon
  TGI: > 100 µM
UACC-257 melanoma
  TGI: > 100 µM
HCT-116 colon
  TGI: > 100 µM
SNB-78 CNS
  TGI: > 100 µM
